# According to ChEMBL document CHEMBL5465560, “Selectivity Literature for EUbOPEN Chemogenomic Library” (2024):
# Key:
# [1] = Selectivity interaction (KinomeScan (DiscoverX)) EUB0001079a CDK2H; conditions: at 1 µM
# [2] = molecular target: AP2-associated protein kinase 1 (Homo sapiens, UniProt Q2M2I8); conditions: at 10 µM
# [3] = molecular target: T1, Mitogen-activated protein kinase 12 (Homo sapiens) (UniProt P53778); test: Selectivity interaction (Kinase panel (Invitrogen)) EUB0000639a MAPK12; conditions: at 200 nM
# T1 sequence (whole entry): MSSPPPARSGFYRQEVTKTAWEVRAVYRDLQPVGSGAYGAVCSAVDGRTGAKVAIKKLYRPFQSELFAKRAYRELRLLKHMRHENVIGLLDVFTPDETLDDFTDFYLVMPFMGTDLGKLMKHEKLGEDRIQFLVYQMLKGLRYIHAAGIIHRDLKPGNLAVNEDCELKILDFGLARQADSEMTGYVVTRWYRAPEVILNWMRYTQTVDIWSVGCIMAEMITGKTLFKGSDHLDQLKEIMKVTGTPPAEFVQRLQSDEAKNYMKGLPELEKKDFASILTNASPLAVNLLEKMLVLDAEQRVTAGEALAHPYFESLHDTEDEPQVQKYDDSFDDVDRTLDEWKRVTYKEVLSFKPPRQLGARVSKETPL
# [4] = molecular target: 5'-AMP-activated protein kinase catalytic subunit alpha-1 (Homo sapiens, UniProt Q13131); test: Selectivity interaction (ActivX KiNativ screen (kinase selectivity in THP-1 cell lysates)) EUB0000639a PRKAA1; assay type: subcellular; conditions: lysate, at 0.04 µM
# 5'-AMP-activated protein kinase catalytic subunit alpha-1, sequence (Q13131 whole entry, looked up): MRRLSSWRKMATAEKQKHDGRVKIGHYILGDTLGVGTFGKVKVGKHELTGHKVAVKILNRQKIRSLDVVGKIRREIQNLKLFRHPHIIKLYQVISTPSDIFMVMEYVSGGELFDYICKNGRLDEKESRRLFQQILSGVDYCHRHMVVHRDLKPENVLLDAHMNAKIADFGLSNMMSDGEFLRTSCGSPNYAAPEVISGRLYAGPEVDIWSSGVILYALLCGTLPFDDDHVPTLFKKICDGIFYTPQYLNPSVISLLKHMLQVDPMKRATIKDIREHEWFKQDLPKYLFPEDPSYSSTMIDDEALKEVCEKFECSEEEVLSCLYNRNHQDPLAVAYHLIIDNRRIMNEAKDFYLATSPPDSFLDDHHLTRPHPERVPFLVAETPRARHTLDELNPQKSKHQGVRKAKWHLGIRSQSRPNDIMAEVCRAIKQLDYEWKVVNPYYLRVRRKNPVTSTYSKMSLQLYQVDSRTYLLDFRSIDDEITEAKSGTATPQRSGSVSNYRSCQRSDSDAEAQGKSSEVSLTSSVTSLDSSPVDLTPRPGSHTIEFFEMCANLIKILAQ
# [5] = molecular target: T2, Mitogen-activated protein kinase 13 (Homo sapiens) (UniProt O15264); test: Selectivity interaction (ActivX KiNativ screen (kinase selectivity in THP-1 cell lysates)) EUB0000639a MAPK13; assay type: subcellular; conditions: lysate
# T2 sequence (whole entry): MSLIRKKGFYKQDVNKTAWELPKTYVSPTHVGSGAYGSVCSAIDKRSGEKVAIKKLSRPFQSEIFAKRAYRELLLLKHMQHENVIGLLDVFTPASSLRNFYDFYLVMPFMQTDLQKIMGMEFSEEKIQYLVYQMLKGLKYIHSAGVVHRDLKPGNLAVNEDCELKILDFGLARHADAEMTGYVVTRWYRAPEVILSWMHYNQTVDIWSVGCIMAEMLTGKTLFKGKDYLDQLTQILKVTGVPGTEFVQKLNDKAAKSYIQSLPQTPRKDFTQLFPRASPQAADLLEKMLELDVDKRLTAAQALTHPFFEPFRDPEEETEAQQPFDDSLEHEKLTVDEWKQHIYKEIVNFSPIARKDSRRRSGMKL
# [6] = molecular target: T3, Ephrin type-A receptor 6 (Homo sapiens) (UniProt Q9UF33); test: Selectivity interaction (KinomeScan (DiscoverX)) EUB0000595a EPHA6; conditions: at 10 µM
# T3 sequence (whole entry): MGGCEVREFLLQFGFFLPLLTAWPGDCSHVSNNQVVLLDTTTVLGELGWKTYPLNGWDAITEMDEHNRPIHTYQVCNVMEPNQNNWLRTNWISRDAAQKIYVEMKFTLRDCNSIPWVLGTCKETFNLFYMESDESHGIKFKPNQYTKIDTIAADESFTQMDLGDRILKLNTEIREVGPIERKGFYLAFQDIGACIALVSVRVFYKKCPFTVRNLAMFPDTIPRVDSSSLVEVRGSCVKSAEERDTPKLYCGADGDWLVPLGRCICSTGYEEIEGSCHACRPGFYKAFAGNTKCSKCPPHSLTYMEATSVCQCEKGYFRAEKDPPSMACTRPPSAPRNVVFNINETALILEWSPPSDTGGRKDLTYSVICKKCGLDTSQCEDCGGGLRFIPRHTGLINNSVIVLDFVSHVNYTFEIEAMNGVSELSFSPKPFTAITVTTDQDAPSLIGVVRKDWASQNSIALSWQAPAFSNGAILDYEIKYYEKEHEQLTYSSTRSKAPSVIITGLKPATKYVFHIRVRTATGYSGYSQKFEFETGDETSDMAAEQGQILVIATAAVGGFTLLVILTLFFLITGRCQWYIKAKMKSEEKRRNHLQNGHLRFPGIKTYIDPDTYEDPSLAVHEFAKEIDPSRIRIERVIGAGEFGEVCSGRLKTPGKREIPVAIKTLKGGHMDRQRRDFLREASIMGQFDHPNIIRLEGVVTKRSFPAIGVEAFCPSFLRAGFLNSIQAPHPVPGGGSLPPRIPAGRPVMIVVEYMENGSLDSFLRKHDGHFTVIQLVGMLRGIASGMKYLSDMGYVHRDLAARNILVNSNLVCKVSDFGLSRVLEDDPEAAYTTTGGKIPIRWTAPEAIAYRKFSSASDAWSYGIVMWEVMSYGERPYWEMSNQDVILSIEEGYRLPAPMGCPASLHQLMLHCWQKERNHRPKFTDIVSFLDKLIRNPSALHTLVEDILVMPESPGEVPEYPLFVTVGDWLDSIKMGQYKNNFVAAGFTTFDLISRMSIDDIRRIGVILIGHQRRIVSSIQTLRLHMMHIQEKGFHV
# [7] = molecular target: Ribosomal protein S6 kinase alpha-2 (Homo sapiens) (UniProt Q15349); test: Selectivity interaction (KinomeScan (DiscoverX)) EUB0000595a RPS6KA2; conditions: at 10 µM
# Ribosomal protein S6 kinase alpha-2 (Homo sapiens), sequence (Q15349 whole entry): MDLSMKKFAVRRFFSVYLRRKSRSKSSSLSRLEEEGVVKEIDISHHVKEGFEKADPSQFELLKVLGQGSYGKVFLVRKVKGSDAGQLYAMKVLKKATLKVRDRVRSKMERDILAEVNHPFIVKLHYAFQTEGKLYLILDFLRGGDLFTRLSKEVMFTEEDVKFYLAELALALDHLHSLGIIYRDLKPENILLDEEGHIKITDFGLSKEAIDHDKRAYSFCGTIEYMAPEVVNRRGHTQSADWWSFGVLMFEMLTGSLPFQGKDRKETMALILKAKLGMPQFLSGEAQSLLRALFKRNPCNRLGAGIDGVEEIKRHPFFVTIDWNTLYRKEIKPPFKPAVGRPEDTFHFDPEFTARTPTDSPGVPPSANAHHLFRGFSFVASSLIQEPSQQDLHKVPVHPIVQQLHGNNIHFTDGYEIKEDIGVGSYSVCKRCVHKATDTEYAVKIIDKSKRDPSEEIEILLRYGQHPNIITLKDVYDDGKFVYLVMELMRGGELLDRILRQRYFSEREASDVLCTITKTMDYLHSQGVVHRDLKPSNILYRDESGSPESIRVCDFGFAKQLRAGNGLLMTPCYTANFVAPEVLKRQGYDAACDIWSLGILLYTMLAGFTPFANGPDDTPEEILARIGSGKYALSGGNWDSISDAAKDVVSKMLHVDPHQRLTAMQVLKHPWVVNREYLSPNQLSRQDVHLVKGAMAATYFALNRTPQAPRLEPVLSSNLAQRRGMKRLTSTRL
# [8] = molecular target: BMP-2-inducible protein kinase (Homo sapiens) (UniProt Q9NSY1); test: Selectivity interaction (KinomeScan (DiscoverX)) EUB0000092b BMP2K; conditions: at 10 µM
# BMP-2-inducible protein kinase (Homo sapiens), sequence (Q9NSY1 whole entry, looked up): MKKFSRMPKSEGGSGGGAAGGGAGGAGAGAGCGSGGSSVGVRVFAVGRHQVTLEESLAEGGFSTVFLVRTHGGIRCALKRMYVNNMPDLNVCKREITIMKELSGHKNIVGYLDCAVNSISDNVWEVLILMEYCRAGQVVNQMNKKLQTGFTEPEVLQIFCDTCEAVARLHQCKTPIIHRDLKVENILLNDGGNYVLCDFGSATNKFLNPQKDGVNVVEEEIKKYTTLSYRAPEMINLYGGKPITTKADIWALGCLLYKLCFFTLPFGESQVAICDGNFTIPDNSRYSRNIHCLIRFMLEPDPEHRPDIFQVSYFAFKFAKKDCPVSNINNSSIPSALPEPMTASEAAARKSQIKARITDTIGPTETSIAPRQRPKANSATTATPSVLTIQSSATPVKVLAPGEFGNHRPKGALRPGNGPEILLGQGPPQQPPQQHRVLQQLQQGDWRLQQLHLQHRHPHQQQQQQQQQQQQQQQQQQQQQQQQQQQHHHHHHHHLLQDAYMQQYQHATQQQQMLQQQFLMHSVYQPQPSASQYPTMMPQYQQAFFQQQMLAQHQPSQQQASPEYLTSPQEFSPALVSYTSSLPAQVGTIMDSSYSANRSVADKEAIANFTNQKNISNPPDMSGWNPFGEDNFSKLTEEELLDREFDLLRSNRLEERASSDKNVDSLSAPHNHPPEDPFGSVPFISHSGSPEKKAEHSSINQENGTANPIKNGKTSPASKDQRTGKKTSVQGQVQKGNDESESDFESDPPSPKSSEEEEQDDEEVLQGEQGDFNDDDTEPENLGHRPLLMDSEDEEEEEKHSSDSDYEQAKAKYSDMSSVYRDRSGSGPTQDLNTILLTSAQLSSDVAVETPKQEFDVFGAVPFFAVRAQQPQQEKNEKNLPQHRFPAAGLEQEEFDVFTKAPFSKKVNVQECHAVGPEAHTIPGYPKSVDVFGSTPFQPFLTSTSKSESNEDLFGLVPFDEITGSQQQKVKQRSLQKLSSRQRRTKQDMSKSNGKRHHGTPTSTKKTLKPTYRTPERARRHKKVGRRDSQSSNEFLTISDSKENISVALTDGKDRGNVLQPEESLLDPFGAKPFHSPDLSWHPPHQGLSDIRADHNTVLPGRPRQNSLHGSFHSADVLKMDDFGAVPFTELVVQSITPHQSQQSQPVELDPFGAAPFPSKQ
# [9] = molecular target: Mitogen-activated protein kinase 7 (Homo sapiens) (UniProt Q13164); test: Selectivity interaction (KinomeScan (DiscoverX)) EUB0000618a MAPK7; conditions: at 10 µM
# Mitogen-activated protein kinase 7 (Homo sapiens), sequence (Q13164 2-816 limits assumed): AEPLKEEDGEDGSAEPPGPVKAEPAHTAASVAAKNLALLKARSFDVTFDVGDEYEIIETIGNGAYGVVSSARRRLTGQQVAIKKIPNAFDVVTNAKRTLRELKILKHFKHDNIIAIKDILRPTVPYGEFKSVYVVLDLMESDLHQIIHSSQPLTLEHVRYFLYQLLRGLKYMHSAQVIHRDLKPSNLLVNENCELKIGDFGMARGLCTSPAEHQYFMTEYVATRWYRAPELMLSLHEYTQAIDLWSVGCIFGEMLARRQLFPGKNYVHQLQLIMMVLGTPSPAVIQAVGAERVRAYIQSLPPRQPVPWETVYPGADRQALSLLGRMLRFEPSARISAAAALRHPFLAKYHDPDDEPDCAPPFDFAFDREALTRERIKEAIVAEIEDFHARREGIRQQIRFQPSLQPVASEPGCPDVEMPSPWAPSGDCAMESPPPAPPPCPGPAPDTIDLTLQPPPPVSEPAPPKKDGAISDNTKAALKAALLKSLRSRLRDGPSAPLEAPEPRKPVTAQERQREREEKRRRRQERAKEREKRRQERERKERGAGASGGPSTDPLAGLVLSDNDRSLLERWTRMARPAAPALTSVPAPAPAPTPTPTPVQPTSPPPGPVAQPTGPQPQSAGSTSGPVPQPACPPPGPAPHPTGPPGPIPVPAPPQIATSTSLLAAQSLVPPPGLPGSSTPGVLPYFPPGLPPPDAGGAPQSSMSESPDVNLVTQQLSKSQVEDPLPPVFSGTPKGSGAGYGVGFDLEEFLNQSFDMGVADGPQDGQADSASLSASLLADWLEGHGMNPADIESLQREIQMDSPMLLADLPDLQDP
# [10] = molecular target: Cyclin-dependent kinase 4/cyclin D1 (Homo sapiens, UniProt P11802); test: Selectivity interaction (Competition-binding assay (DiscoverX)) EUB0001632a CDK4; assay type: protein-complex assay
# Cyclin-dependent kinase 4/cyclin D1, sequence (P11802 whole entry): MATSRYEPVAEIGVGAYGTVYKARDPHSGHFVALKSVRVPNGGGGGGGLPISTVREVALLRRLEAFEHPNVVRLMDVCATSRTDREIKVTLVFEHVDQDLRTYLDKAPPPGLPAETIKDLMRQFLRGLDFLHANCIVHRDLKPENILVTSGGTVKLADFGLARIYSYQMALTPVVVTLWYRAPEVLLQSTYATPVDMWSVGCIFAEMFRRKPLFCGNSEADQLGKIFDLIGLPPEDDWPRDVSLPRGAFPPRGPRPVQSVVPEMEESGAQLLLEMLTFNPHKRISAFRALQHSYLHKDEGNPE
# Cyclin-dependent kinase 4/cyclin D1, sequence (P24385 whole entry, further chain): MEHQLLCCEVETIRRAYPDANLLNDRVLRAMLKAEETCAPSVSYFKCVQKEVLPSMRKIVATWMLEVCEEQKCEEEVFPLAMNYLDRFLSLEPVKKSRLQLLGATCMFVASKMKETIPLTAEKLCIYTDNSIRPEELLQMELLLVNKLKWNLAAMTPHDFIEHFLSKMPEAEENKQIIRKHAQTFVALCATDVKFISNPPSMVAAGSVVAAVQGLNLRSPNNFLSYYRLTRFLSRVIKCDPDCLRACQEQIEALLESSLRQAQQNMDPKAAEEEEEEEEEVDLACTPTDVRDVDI
# AP2-associated protein kinase 1, sequence (Q2M2I8 whole entry, looked up): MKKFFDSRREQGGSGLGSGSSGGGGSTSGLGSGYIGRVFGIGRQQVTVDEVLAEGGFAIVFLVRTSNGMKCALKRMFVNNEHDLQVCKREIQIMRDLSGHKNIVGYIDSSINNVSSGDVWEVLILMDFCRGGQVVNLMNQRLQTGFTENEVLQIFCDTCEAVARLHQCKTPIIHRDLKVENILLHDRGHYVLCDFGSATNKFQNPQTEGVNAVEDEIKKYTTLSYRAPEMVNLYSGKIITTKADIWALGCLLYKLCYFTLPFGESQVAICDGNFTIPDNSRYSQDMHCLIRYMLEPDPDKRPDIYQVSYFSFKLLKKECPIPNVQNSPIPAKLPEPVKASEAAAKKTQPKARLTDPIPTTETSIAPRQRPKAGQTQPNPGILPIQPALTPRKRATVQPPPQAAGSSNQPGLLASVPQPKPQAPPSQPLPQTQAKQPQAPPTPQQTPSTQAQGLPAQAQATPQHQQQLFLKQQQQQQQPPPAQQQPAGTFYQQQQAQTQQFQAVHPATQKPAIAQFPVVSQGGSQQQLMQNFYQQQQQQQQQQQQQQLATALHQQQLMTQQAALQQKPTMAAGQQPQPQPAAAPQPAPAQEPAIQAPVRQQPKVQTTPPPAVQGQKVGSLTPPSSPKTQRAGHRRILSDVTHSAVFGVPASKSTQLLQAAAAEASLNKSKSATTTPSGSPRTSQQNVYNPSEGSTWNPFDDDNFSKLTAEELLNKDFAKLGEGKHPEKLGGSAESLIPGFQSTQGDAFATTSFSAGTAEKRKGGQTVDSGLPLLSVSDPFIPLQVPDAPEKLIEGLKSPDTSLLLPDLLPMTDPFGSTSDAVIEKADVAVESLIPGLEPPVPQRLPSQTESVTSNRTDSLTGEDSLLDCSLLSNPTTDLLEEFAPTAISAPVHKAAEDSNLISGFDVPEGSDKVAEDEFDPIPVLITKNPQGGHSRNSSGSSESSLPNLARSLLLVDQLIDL
smiles,measurement,setting,value
Nc1cnc(N2CCc3cc(S(=O)(=O)Nc4c(F)cc(Cl)cc4F)cc(N4CCCC4=O)c32)nc1 [TP-020n],% of control,[1],100%
CCN(CC)CCCCNc1ncc2cc(-c3cc(OC)cc(OC)c3)c(NC(=O)NC(C)(C)C)nc2n1,% of control,[2],100%
CC[C@@H]1[C@H](F)C(=O)N[C@@H]1COc1nccc2cc(C(N)=O)c(OC)cc12 [ZIMLOVISERTIB],% of inhibition,[3],7.12%
same,% of inhibition,[4],-11.5%
same,% of inhibition,[5]; at 0.01 µM,-4.4%
same,% of inhibition,[5]; at 0.04 µM,6%
same,% of inhibition,[5]; at 0.2 µM,-3.6%
same,% of inhibition,[5]; at 1 µM,7.4%
same,% of inhibition,[5]; at 5 µM,20.3%
COCC(=O)NC/C=C/c1ccc2ncnc(Nc3ccc(Oc4ccc(C)nc4)c(C)c3)c2c1 [CP-724714],% of control,[6],96%
same,% of control,[7],78%
CCC(=O)N1CCN(c2ccc(-n3c(=O)ccc4cnc5ccc(-c6cnc7ccccc7c6)cc5c43)cc2C(F)(F)F)CC1,% of control,[8],100%
O[C@H]1CC[C@H](Nc2ncc3nc(Nc4c(F)cc(F)cc4F)n([C@H]4CCOC4)c3n2)CC1,% of control,[9],90%
Cn1cc(-n2cnc3c(NCc4nc5cc(Cl)c(Cl)cc5[nH]4)nc(N4CCOCC4)nc32)cn1,Kd,[10],> 10 µM
